Each compound was assayed on Huntingtin protein (HTT) (assay: Endogenous Huntingtin Protein Assay (MSD electrochemiluminescence ELISA; MW1 or MAB2166 capture, #5656S detection)).
Type: cell-based, human
Method: The Endogenous Huntingtin Protein assay used in Example 2 was developed using the Best Pair antibodies identified in Table 2, providing highly sensitive, high-throughput detection assays for polyglutamine-expanded (mHTT) and total human HTT in multiple cell systems. The platform used for the assay is the ELISA-based Meso Scale Discovery (MSD) electrochemiluminescence assay platform.
Meso Scale Discovery (MSD) 96-well or 384-well plates were coated overnight at 4° C. with MW1 (expanded polyglutamine) or MAB2166 monoclonal antibody (for capture) at a concentration of 1 μg/mL in PBS (30 μL per well). Plates were then washed three times with 300 μL wash buffer (0.05% Tween-20 in PBS) and blocked (100 μL blocking buffer; 5% BSA in PBS) for 4-5 hours at room temperature with rotational shaking and then washed three times with wash buffer.
Samples (25 μL) were transferred to the antibody-coated MSD plate and incubated overnight at 4° C. After removal of the lysates, the plate was washed three times with wash buffer, and 25 μL of #5656S (Cell signaling; rabbit monoclonal) secondary antibody (diluted to 0.25 μg/mL in 0.05% Tween-20 in blocking buffer) was added to each well and incubated with shaking for 1 Hour at room temperature. Following incubation with the secondary antibody, the wells were rinsed with wash buffer after which 25 μL of goat anti-rabbit SULFO TAG secondary detection antibody (required aspect of the MSD system) (diluted to 0.25 μg/mL in 0.05% Tween-20 in blocking buffer) was added to each well and incubated with shaking for 1 hour at room temperature. After rinsing three times with wash buffer, 150 μL of read buffer T with surfactant (MSD) were added to each empty well, and the plate was imaged on a SI 6000 imager (MSD) according to manufacturers' instructions provided for 96- or 384-well plates.

First: Oc1cc(-c2cn[nH]c2)ccc1-c1ccc(N2CC3(CCNCC3)C2)nn1 [Cpd 439, 2-[6-(2,7-diazaspiro[3.5]non-2-yl)pyridazin-3-yl]-5-(1H-pyrazol-4-yl)phenol]
Second: CN(c1nnc(-c2ccc(-c3cn[nH]c3)cc2O)s1)C1CC(C)(C)NC(C)(C)C1 [Cpd 393]
The IC50 of the first is higher: 1000 to 3000 nM for the first, no more than 100 nM for the second. The second is the more potent here.

First: CN(c1ccc(-c2ccc(O)cc2F)nn1)C1CC(C)(C)NC(C)(C)C1 [Cpd 440, 3-fluoro-4-{6-[methyl(2,2,6,6-tetramethylpiperidin-4-yl)amino]pyridazin-3-yl}phenol]
Second: Cc1cnc(-c2ccc(-c3ccc(N(C)C4CC(C)(C)NC(C)(C)C4)nn3)c(O)c2)o1 [Cpd 44, 5-(5-methyl-oxazol-2-yl)-2-(6-(methyl-(2,2,6,6-tetramethylpiperidin-4-yl)-amino)-pyridazin-3-yl)phenol]
The IC50 of the first is higher: 3000 to 9000 nM for the first, no more than 100 nM for the second.

First: CC1(C)CC(Oc2ccc(-c3ccc(-c4cn[nH]c4)cc3)nn2)CC(C)(C)N1 [Cpd 435, 3-[4-(1H-pyrazol-4-yl)phenyl]-6-[(2,2,6,6-tetramethylpiperidin-4-yl)oxy]pyridazine]
Second: CN(c1nnc(-c2ccc(-c3ccn(C)c(=O)c3)cc2O)s1)C1CC(C)(C)NC(C)(C)C1 [Cpd 318]
The IC50 of the first is higher: 500 to 1000 nM for the first, no more than 100 nM for the second. The second is the more potent here.

First: CN(c1nnc(Oc2ccc(-c3cn[nH]c3)cc2)s1)C1CC(C)(C)NC(C)(C)C1 [Cpd 463, N,2,2,6,6-pentamethyl-N-{5-[4-(1H-pyrazol-4-yl)phenoxy]-1,3,4-thiadiazol-2-yl}piperidin-4-amine]
Second: Oc1cc(-c2cn[nH]c2)ccc1-c1ccc(C2=CCNCC2)nn1 [Cpd 424, 5-(1H-pyrazol-4-yl)-2-[6-(1,2,3,6-tetrahydropyridin-4-yl)pyridazin-3-yl]phenol]
The IC50 of the first is higher: 3000 to 9000 nM for the first, 100 to 500 nM for the second.

`CC1CC(Oc2ccc(-c3ccc(-n4cccn4)cc3O)nn2)CC(C)N1` (centres unmarked) [Cpd 441, 2-{6-[(2,6-dimethylpiperidin-4-yl)oxy]pyridazin-3-yl}-5-(1H-pyrazol-1-yl)phenol] and “3-[2-methoxy-4-(1H-pyrazol-1-yl)phenyl]-6-[(2,2,6,6-tetramethylpiperidin-4-yl)oxy]pyridazine [Cpd 447]” fall in the same range of IC50: 3000 to 9000 nM for the first, 3000 to 9000 nM for the second.

`CN(c1ccc(-c2cc3cnccc3cc2O)nn1)C1CC(C)(C)NC(C)(C)C1` [Cpd 212, 7-(6-(methyl(2,2,6,6-tetramethylpiperidin-4-yl)amino)pyridazin-3-yl)isoquinolin-6-ol] and `CC1(C)CC(Oc2ccc(-c3ccc(-n4ccnc4)cc3O)nn2)CC(C)(C)N1` [Cpd 417, 5-(1H-imidazol-1-yl)-2-{6-[(2,2,6,6-tetramethylpiperidin-4-yl)oxy]pyridazin-3-yl}phenol] cannot be ordered by IC50: no more than 100 nM for the first, no more than 100 nM for the second.

“5-(5-methyl-1H-pyrazol-4-yl)-2-{6-[(2,2,6,6-tetramethylpiperidin-4-yl)oxy]pyridazin-3-yl}phenol [Cpd 418]” and `CN(c1ccc(-c2ccc(-c3cn[nH]c3)cc2O)nn1)C1CC(C)(C)NC(C)(C)C1` [Cpd 48, 2-(6-(methyl(2,2,6,6-tetramethylpiperidin-4-yl)amino)pyridazin-3-yl)-5-(1H-pyrazol-4-yl)phenol] cannot be ordered by IC50: no more than 100 nM for the first, no more than 100 nM for the second.

`CC1(C)CC(Oc2ccc(-c3c(F)cc(-c4cn[nH]c4)cc3F)nn2)CC(C)(C)N1` [Cpd 458, 3-[2,6-difluoro-4-(1H-pyrazol-4-yl)phenyl]-6-[(2,2,6,6-tetramethylpiperidin-4-yl)oxy]pyridazine] and `CC1(C)CC(Oc2ccc(-c3ccc4nccn4c3)nn2)CC(C)(C)N1` [Cpd 446, 6-{6-[(2,2,6,6-tetramethylpiperidin-4-yl)oxy]pyridazin-3-yl}imidazo[1,2-a]pyridine] fall in the same range of IC50: 3000 to 9000 nM for the first, 3000 to 9000 nM for the second.

First: CN(c1nnc(-c2cc(F)c(-c3cn[nH]c3)cc2F)s1)C1CC(C)(C)NC(C)(C)C1 [Cpd 350]
Second: CC1(C)CC(Oc2ccc(-c3ccc(O)cc3O)nn2)CC(C)(C)N1 [Cpd 455, 4-{6-[(2,2,6,6-tetramethylpiperidin-4-yl)oxy]pyridazin-3-yl}benzene-1,3-diol]
The IC50 of the first is lower: no more than 100 nM for the first, 3000 to 9000 nM for the second. The first is the more potent here.

First: CC1(C)CC(Oc2ccc(-c3ccc(-c4cn[nH]c4)s3)nn2)CC(C)(C)N1 [Cpd 448, 3-[5-(1H-pyrazol-4-yl)thiophen-2-yl]-6-[(2,2,6,6-tetramethylpiperidin-4-yl)oxy]pyridazine]
Second: CN(c1ccc(-c2cc(F)c(-c3cn[nH]c3)cc2F)nn1)C1CC(C)(C)NC(C)(C)C1 [Cpd 428, 6-[2,5-difluoro-4-(1H-pyrazol-4-yl)phenyl]-N-methyl-N-(2,2,6,6-tetramethylpiperidin-4-yl)pyridazin-3-amine]
The IC50 of the first is higher: 3000 to 9000 nM for the first, 100 to 500 nM for the second. The second is the more potent here.

`Cc1[nH]ncc1-c1ccc(-c2ccc(N(C)C3CC(C)(C)NC(C)(C)C3)nn2)c(O)c1` [Cpd 416, 5-(5-methyl-1H-pyrazol-4-yl)-2-{6-[methyl(2,2,6,6-tetramethylpiperidin-4-yl)amino]pyridazin-3-yl}phenol] and `CN(c1ccc(-c2cc3cncnc3cc2O)nn1)C1CC(C)(C)NC(C)(C)C1` [Cpd 258, 6-(6-(methyl(2,2,6,6-tetramethylpiperidin-4-yl)amino)pyridazin-3-yl)quinazolin-7-ol] cannot be ordered by IC50: no more than 100 nM for the first, 100 to 500 nM for the second.

First: CC1(C)CC(Oc2ccc(-c3cc4ccccc4cc3O)nn2)CC(C)(C)N1 [Cpd 31, 3-(6-((2,2,6,6-tetramethylpiperidin-4-yl)oxy)pyridazin-3-yl)naphthalen-2-ol]
Second: COc1nc(-c2cn[nH]c2)ccc1-c1ccc(N(C)C2CC(C)(C)NC(C)(C)C2)nn1 [Cpd 434, 6-[2-methoxy-6-(1H-pyrazol-4-yl)pyridin-3-yl]-N-methyl-N-(2,2,6,6-tetramethylpiperidin-4-yl)pyridazin-3-amine]
The IC50 of the first is lower: 100 to 500 nM for the first, 500 to 1000 nM for the second. The first is the more potent here.

`CN(c1ccc(-c2ccc(-n3cc(N)cn3)cc2O)nn1)C1CC(C)(C)NC(C)(C)C1` [Cpd 47, 5-(4-amino-1H-pyrazole-1-yl)-2-(6-(methyl(2,2,6,6-tetramethylpiperidin-4-yl)amino)pyridazin-3-yl)phenol] and `CN(c1ccc(-c2ccc(-c3cn[nH]c3)c(F)c2F)nn1)C1CC(C)(C)NC(C)(C)C1` [Cpd 430, 6-[2,3-difluoro-4-(1H-pyrazol-4-yl)phenyl]-N-methyl-N-(2,2,6,6-tetramethylpiperidin-4-yl)pyridazin-3-amine] fall in the same range of IC50: 100 to 500 nM for the first, 100 to 500 nM for the second.

`Cn1cc(-c2ccc(-c3ccc(OC4CC(C)(C)NC(C)(C)C4)nn3)c(O)c2)cn1` [Cpd 414, 5-(1-methyl-1H-pyrazol-4-yl)-2-{6-[(2,2,6,6-tetramethylpiperidin-4-yl)oxy]pyridazin-3-yl}phenol] and `CN(c1ccc(-c2ccc(-n3cc([N+](=O)[O-])cn3)cc2O)nn1)C1CC(C)(C)NC(C)(C)C1` [Cpd 419, 2-{6-[methyl(2,2,6,6-tetramethylpiperidin-4-yl)amino]pyridazin-3-yl}-5-(4-nitro-1H-pyrazol-1-yl)phenol] cannot be ordered by IC50: no more than 100 nM for the first, no more than 100 nM for the second.

First: CN(c1ccc(-c2cc3cccnc3cc2O)nn1)C1CC(C)(C)NC(C)(C)C1 [Cpd 207, 6-(6-(methyl(2,2,6,6-tetramethylpiperidin-4-yl)amino)pyridazin-3-yl)quinolin-7-ol]
Second: CN(c1ccc(-c2ccc(-c3cn[nH]c3)cc2Cl)nn1)C1CC(C)(C)NC(C)(C)C1 [Cpd 456, 6-[2-chloro-4-(1H-pyrazol-4-yl)phenyl]-N-methyl-N-(2,2,6,6-tetramethylpiperidin-4-yl)pyridazin-3-amine]
The IC50 of the first is lower: 100 to 500 nM for the first, 3000 to 9000 nM for the second.

`Oc1cc(-c2cn[nH]c2)ccc1-c1ccc(N2C[C@H]3CNC[C@H]3C2)nn1` [Cpd 200, 2-(6-((3aR,6aS)-hexahydropyrrolo[3,4-c]pyrrol-2(1H)-yl)pyridazin-3-yl)-5-(1H-pyrazol-4-yl)phenol] and `CC1(C)CC(Nc2ccc(-c3ccc(-c4cn[nH]c4)cc3O)nn2)CC(C)(C)N1` [Cpd 413, 5-(1H-pyrazol-4-yl)-2-{6-[(2,2,6,6-tetramethylpiperidin-4-yl)amino]pyridazin-3-yl}phenol] cannot be ordered by IC50: no more than 100 nM for the first, no more than 100 nM for the second.

`CN(c1ccc(-c2ccc3nccn3c2)nn1)C1CC(C)(C)NC(C)(C)C1` [Cpd 16, 6-(imidazo[1,2-a]pyridin-6-yl)-N-methyl-N-(2,2,6,6-tetramethylpiperidin-4-yl)pyridazin-3-amine] and `Oc1cc(-c2cn[nH]c2)ccc1-c1ccc(N2CC3(CCNC3)C2)nn1` [Cpd 459, 2-[6-(2,6-diazaspiro[3.4]oct-2-yl)pyridazin-3-yl]-5-(1H-pyrazol-4-yl)phenol] fall in the same range of IC50: 3000 to 9000 nM for the first, 3000 to 9000 nM for the second.

`Oc1cc(-c2cn[nH]c2)ccc1-c1ccc(C2=CC3CCC(C2)N3)nn1` (centres unmarked) [Cpd 429, 2-[6-(8-azabicyclo[3.2.1]oct-2-en-3-yl)pyridazin-3-yl]-5-(1H-pyrazol-4-yl)phenol] and `CN(c1nnc(-c2ccc(-c3cnn(C)c3)cc2O)s1)C1CC(C)(C)NC(C)(C)C1` [Cpd 315] cannot be ordered by IC50: 100 to 500 nM for the first, no more than 100 nM for the second.

First: Cn1cc(-c2ccc(-c3ccc(OC4CC(C)(C)NC(C)(C)C4)nn3)s2)cn1 [Cpd 449, 3-[5-(1-methyl-1H-pyrazol-4-yl)thiophen-2-yl]-6-[(2,2,6,6-tetramethylpiperidin-4-yl)oxy]pyridazine]
Second: CC1(C)CC(Oc2ccc(-c3ccc(-n4cccn4)cc3O)nn2)CC(C)(C)N1 [Cpd 63, 5-1H-pyrazol-1-yl-2-(6-(2,2,6,6-tetramethylpiperidin-4-yl-oxy)-pyridazin-3-yl)phenol]
The IC50 of the first is higher: 3000 to 9000 nM for the first, no more than 100 nM for the second.

Source: patent US11638706B2, “Methods for treating Huntington's disease” (PTC Therapeutics, Inc., priority 2015, dated 2023)
